According to BindingDB's records for doi:10.1016/j.chembiol.2010.07.014 (Brandeis University, 2010):

Experiments:
Test in all cases: Inhibition Assay
Details in all cases: pH 8; 25 °C
[1] = target: T1, Inosine-5'-monophosphate dehydrogenase (Cryptosporidium parvum, UniProt Q8T6T2)
T1 sequence (Q8T6T2 whole entry): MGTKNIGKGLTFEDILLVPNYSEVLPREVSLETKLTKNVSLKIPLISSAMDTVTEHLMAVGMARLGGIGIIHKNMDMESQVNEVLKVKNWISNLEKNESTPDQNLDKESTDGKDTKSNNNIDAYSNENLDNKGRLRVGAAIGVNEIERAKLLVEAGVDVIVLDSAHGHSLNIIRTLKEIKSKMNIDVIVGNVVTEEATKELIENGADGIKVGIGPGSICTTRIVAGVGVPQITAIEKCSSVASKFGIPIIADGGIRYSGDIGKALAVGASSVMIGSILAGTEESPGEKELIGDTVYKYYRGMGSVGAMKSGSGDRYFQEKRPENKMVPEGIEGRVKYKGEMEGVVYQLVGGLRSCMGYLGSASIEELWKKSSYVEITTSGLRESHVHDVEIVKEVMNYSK
From the text: (§1) Inhibition assay using inosine 5'-onophosphate dehydrogenase (IMPD).

[2] = target: T2, Inosine-5'-monophosphate dehydrogenase (Borreliella burgdorferi (strain ATCC 35210 / DSM 4680 / CIP 102532 / B31), UniProt P49058)
T2 sequence (P49058 whole entry): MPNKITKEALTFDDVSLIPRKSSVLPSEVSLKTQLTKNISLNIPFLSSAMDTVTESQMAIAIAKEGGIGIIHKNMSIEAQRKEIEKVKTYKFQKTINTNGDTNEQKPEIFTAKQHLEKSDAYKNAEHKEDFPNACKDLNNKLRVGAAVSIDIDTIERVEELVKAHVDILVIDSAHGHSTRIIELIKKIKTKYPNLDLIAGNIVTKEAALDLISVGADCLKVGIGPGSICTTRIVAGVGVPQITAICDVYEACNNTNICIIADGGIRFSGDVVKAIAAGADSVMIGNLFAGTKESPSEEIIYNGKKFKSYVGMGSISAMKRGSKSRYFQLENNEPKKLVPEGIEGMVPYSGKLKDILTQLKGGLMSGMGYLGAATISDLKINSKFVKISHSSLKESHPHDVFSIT
From the text: as §1

[3] = target: T3, Inosine-5'-monophosphate dehydrogenase (Helicobacter pylori (strain G27), UniProt B5Z7J4)
T3 sequence (B5Z7J4 whole entry): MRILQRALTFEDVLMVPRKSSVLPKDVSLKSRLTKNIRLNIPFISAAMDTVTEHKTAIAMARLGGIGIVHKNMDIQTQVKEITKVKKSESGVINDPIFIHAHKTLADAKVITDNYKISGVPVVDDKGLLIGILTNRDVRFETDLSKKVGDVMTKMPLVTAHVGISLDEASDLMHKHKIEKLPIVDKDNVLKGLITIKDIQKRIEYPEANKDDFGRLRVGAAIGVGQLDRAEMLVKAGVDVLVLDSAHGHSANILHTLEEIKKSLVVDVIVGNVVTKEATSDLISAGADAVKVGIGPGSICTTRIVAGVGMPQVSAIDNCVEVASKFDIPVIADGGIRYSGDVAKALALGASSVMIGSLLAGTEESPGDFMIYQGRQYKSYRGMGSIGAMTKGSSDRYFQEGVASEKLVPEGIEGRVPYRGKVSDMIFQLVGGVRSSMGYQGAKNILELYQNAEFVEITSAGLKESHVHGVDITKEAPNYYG
From the text: as §1

[4] = target: Inosine-5'-monophosphate dehydrogenase (Streptococcus pyogenes, UniProt P0C0H6)
From the text: as §1

Chain of Inosine-5'-monophosphate dehydrogenase (Streptococcus pyogenes, UniProt P0C0H6) (P0C0H6 whole entry): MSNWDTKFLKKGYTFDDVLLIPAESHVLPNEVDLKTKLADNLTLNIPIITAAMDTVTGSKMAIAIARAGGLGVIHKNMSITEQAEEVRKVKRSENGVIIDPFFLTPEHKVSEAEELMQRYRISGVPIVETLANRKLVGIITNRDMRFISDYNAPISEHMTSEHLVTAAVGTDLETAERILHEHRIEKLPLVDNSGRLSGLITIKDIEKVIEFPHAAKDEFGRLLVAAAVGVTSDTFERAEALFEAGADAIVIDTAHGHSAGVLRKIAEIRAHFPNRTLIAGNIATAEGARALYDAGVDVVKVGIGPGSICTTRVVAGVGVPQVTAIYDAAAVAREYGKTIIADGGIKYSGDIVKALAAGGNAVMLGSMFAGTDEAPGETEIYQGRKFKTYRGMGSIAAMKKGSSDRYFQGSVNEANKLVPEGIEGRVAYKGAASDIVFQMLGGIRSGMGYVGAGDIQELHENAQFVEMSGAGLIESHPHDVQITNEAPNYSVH

| Compound | IC50 [1] | IC50 [2] | IC50 [3] | IC50 [4] |
| --- | --- | --- | --- | --- |
| COc1ccc(NC(=O)Cc2cccc3ccccc23)cc1 [N-(4-methoxyphenyl)-2-(naphthalen-1-yl)acetamide, Compound B] | 1.6 µM | 1.8 µM | 1.3 µM | 85 µM |
| CCn1c(SCC(=O)Nc2ccc(OC)cc2)nc2ccsc2c1=O [l-4-oxo-3H,4H-thieno[3,2-d]pyrimidin-2-yl}sulfanyl)-N-(4-methoxyphenyl)acetamide, Compound F] | 1.4 µM | 0.8 µM | 1.1 µM | 13 µM |
| Nc1ccc(C(=O)OCCCc2nc3cc4ccccc4cc3[nH]2)cc1 [3-{1H-naphtho[2,3-d]imidazol-2-yl}propyl 4-aminobenzoate, Compound H] | 0.9 µM | 0.9 µM | 1.2 µM | 0.86 µM |
| COC(=O)c1c(C)c(=O)[nH]c2ccccc12 [methyl 3-methyl-2-oxo-1,2-dihydroquinoline-4-carboxylate, Compound E] | 1.6 µM | 0.9 µM | 1.5 µM | 15 µM |
| COc1ccc(NC(=O)Cc2nn(C)c(=O)c3ccccc23)cc1 [N-(4-methoxyphenyl)-2-(3-methyl-4-oxo-3,4-dihydrophthalazin-1-yl)acetamide, Compound D] | 5.4 µM | 1.7 µM | 3 µM | 49 µM |
| Nc1ccc(C(=O)OCc2nc3cc4ccccc4cc3[nH]2)cc1 [1H-naphtho[2,3-d]imidazol-2-ylmethyl 4-aminobenzoate, Compound G] | 0.1 µM | 0.22 µM | 0.3 µM | 0.55 µM |
| CC(Oc1ccccc1)C(=O)Nc1ccc(Cl)cc1 (centres undefined) |  | 1.4 µM | 2.2 µM | 96 µM |
| COc1ccc(NC(=O)Cn2c(-c3cscn3)nc3ccccc32)cc1 [N-(4-methoxyphenyl)-2-[2-(1,3-thiazol-4-yl)-1H-1,3-benzodiazol-1-yl]acetamide, Compound C] | 1.2 µM | 0.6 µM | 0.6 µM | 70 µM |
| O=C(Cn1c(-c2ccccn2)nc2ccccc21)Nc1ccc2ccccc2c1 [N-(naphthalen-2-yl)-2-[2-(pyridin-2-yl)-1H-1,3-benzodiazol-1-yl]acetamide, Compound C91] | 0.008 µM |  | 0.0011 µM | 0.0054 µM |
